Results taken from US5602176A, “Phenyl carbamate” (priority 1987, dated 1997).

Columns and labels:
[1] = system: levels of ACh in different regions of rat brain; experiment: Acetylcholine levels in different rat brain regions; assay type: in vivo; conditions: p.o.
Description: Acetylcholine levels in different rat brain regions
The animals are killed by microwave irradiation focused on the head (6 kW operating power 2450 Mhz exposure 1.7 sec., Pueschner Mikrowellen-Energietechnik, Bremen). The brains are removed dissected according to Glowinski and Iversen (1966) and stored at -70° C. until analysis. The brain parts are homogenized in 0.1M perchloric acid containing internal deuterated standards of ACh-d4 and Ch(choline)-d4. After centrifugation, endogenous ACh and Ch together with their deuterated variants are extracted with dipicrylamine (2,2',4,4',6,6'-hexanitrodiphenylamine) in dichlormethane as ion pairs. The Ch moities are derivatized with propionyl chloride and the resulting mixture of ACh and propyl choline derivatives are demethylated with sodiumbenzenethiolate and analyzed by mass-fragmentography according to Jenden et al. Anal. Biochem., 55, 438-448, (1973).

[2] = system: rat hippocampal slices (indirect method for acetylcholinesterase (AChE) inhibition); experiment: Electrically evoked 3H-acetylcholine release from rat hippocampal slices; assay type: cell-based
From the text: Electrically evoked ^3 H-acetylcholine release from rat hippocampal slices
Electrically evoked ^3 H-acetylcholine (^3 H-ACh) release from rat hippocampal slices is a functional in vitro model to investigate presynaptic muscarinic autoreceptor agonists and antagonists. This model can also be used as an indirect method to evaluate drugs which inhibit acetylcholinesterase (AChE). Inhibition of AChE activity leads to the accumulation of endogenous ACh which then interacts with presynaptic muscarinic autoreceptors and inhibits further release of ^3 H-ACh.
Rat hippocampal slices (Wistar strain, 180-200 g) are prepared by chopping into cross sections whole hippocampal slices at a distance of 0.3 mm with a McIlwain tissue chopper. Hippocampal slices obtained from 3 rats are incubated for 30 min. at 23° C. in 6 ml Krebs-Ringer containing 0.1 uCi ^3 H-choline and transferred into the superfusion chamber and superfused with Kreb's medium containing 10 μM hemicholinium-3 at a rate of 1.2 ml/min. at 30° C. Collection of 5 min. fractions of the superfusate begins after 60 min. of superfusion. Two periods of electrical stimulation (2 Hz rectangular pulses 2 msec, 10 mA, 2 min.) are applied after 70 min. (S1) and after 125 min. (S2) of superfusion. […] At the end of the experiments the slices are solubilized in conc. formic acid and tritium content is determined in the superfusate and the solubilized slices. Tritium outflow is expressed as the fractional rate of tritium outflow per min. Electrically evoked tritium outflow is calculated by subtraction of the extrapolated basal tritium outflow from the total tritium outflow during the two min. of electrical stimulation and the following 13 min. and is expressed as percent of the tritium content at the beginning of the sample collection. Drug effects on stimulation evoked tritium outflow are expressed as the ratios S2 /S1. All experiments are run in dublicates using a programmable 12 channel superfusion system. For the calculation a computer program is used.

[3] = system: dopamine metabolism in striatum; experiment: Influence on dopamine metabolism; assay type: in vivo, rat; conditions: following administration
Description: Influence on dopamine metabolism
Male OFA rats (150-200 g) were used both for acute and subchronic experiments. The animals are maintained under 12 hour periods of light and dark. The animals are sacrificed always between 11.00 and 13.00 h. The brains are excised immediately, dissected on ice according to the method of GLOWINSKI and IVERSEN, J. Neurochem. 13, 655 (1966), frozen on dry ice and the tissue samples stored at -80° C. until analysis.
Dopamine and its metabolites DOPAC (3,4-dihydroxyphenylacetic acid) and HVA (homovanillic acid) are determined in brain tissue extracts which are obtained by homogenisation of the stored brain tissue samples in 0.1N HCl containing 0.05 mM ascorbic acid and subsequent centrifugation. Striatal and cortical tissues are used.
The determination of the metabolites is performed using either the gas chromatography/mass fragmentography (GCMS) technique as described by KAROUM et al., J. Neurochem. 25, 653 (1975) and CATABENI et al., Science 178, 166 (1972) or the fluorometric method as described by […] and MAITRE, Analyt. Biochem. 51, 474 (1973). For the GCMS method, tissue extracts are prepared by adding known amounts of deuterated monoamines and their respective metabolites as internal standards.

[4] = system: deoxyglucose (DOG) utilisation in the brain; experiment: Muscarinic and nicotinic effects on brain glucose utilisation (deoxyglucose autoradiography); assay type: in vivo, rat; conditions: 7.5 μmol/kg p.o.
From the text: Muscarinic and nicotinic effects on brain glucose utilisation
Changes in the functional activity of the CNS are associated with altered deoxyglucose (DOG) utilisation in the brain which can be visualised simultaneously in several brain regions using the autoradiographic method of Sokoloff et al., J. Neurochem. 28, 897 (1977). The administration of cholinergic drugs either direct (muscarinic agonists) or indirect (accumulation of acetylcholine) induces in this model a characteristic "fingerprint" pattern by modifying the regional glucose metabolism.
Male Wistar rats (150-200 g) are used. Drugs are administered at various doses and by different routes (i.v., p.o., i.p.) to animals. [14C]-2-deoxyglucose (125 μC/kg) is injected 45 min. before the animals are sacrificed. The brains are immediately excised, frozen at -80° C. and subsequently cut in slices with a thickness of 20 μm. The optical densities of the radiographic images are measured according to a modification of Sokoloff et al.

[5] = target: T1, AChE preparations of different rat brain regions (Rattus norvegicus, UniProt P37136); experiment: Acetylcholinesterase inhibition in different rat brain regions (in vitro, Ellman); assay type: biochemical; conditions: table 1
T1 construct: Rat brain tissue is homogenized in cold phosphate buffer pH 7.3; from tissue; host or cells: rat brain (cortex, hippocampus, striatum), supernatant of Triton X-100 homogenate
T1 sequence (P37136 32-614): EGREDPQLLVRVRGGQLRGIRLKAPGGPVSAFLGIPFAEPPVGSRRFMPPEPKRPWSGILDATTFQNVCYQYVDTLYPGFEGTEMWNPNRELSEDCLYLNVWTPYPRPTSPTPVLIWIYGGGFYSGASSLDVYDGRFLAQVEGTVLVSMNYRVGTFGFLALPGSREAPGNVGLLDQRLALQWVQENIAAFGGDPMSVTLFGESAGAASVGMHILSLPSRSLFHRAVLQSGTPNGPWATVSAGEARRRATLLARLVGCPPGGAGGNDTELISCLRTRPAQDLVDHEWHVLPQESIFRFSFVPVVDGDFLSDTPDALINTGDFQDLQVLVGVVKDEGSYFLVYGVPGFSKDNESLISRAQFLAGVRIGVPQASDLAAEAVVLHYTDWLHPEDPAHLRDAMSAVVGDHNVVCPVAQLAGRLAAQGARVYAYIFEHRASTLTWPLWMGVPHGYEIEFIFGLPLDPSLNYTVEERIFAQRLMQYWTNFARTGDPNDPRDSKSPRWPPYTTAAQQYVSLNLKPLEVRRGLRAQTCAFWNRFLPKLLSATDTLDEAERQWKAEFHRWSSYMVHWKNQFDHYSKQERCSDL
Description: Acetylcholinesterase inhibition in different rat brain regions
AChE preparations of different rat brain regions (Cortex, hippocampus and striatum) are used in this test and the IC50 (inhibitory concentrations in μM) are determined. The enzyme preparations are preincubated with the inhibitor 15 minutes before the determination.
The AChE activity is measured according to the method described by Ellman (Arch. Biochem. Biophys. 82, 70, 1959). Rat brain tissue is homogenized in cold phosphate buffer pH 7.3 (0.25 mM) containing 0.1% of Triton X-100. After centrifugation aliquots of the clear supernatant is used as enzyme source. The enzyme is preincubated with different concentrations of the inhibitor. After different times, substrate (acetylthiocholinjodide 0.5 mM) is added and the remaining activity determined.

[6] = In vitro skin diffusion test (penetration through the skin); assay type: in vitro ADME; conditions: rat skin
From the text: The penetration through the skin of the compounds for administration according to the invention may be observed in standard in vitro or in vivo tests.
One in vitro test is the well known diffusion test which may be effected according to the principles set out in GB 2098865 A and by T. J. Franz in J. Invest. Dermatol. (1975) 64, 194-195. Solutions containing the active agent in unlabelled or radioactively labelled form are applied to one side of isolated pieces of intact human skin or hairless rat skin about 2 cm^2 in area. The other side of the skin is in contact with physiological saline. The amount of active agent in the saline is measured in conventional manner, e.g. by HPLC or spectrophotometric techniques, or by determining the radioactivity.
In this test using rat skin the following penetration rates, for example, have been found: […]

CCN(C)C(=O)Oc1cccc(C(C)N(C)C)c1 (racemic) [Racemate C, (±)-N-ethyl-3-[(1-dimethylamino)ethyl]-N-methyl-phenyl-carbamate]
influence on ACh levels in rat brain, comparison [1]: significantly weaker than that induced by compound A
antagonism of the inhibitory effect by atropine [2]: can be antagonized by atropine
inhibition at 100 µM ([2]; Rattus norvegicus, 3 h, 100 μM, read-out: inhibition of electrically evoked 3H-ACh release from hippocampal slices): ~25%
dopamine metabolism in striatum [3]: increased

CCN(C)C(=O)Oc1cccc([C@@H](C)N(C)C)c1 [Compound B, reference compound]
changes in DOG utilisation in various rat brain regions [4]: significant changes in DOG utilisation
influence on ACh levels in rat brain, comparison [1]: significantly weaker than that induced by racemate C
activity in the evoked 3H-ACh release model [2]: inactive
dopamine metabolism in striatum [3]: increased
AChE inhibition in vitro, comparison in words [5]: significantly less active

CCN(C)C(=O)Oc1cccc([C@H](C)N(C)C)c1 [Compound of formula I in free base form, (S)-N-ethyl-3-[(1-dimethylamino)ethyl]-N-methyl-phenyl-carbamate]
penetration rate [6]: 28.0±8.2%
